Reference: patent US20210164051A1, “METHODS OF DETECTION AND ANALYSIS OF NUCLEIC ACID IN NEURAL-DERIVED EXOSOMES” (priority 2019, published 2021)
Read-outs that look alike come from different tables or passages of the source.

Key:
myelinated axon fibers = settings: 7 of 16 vervets exposed to BMAA; NS, p=0.0956
IbA1+ microglia = settings: for IbA1+ Density / IbA1+ microglia Size: median ± SEM, n = 8
tau AT8+ NFT = settings: averaged across 7 cortical regions
[1] = test system: TDP-43+ anterior horn motor neurons
[2] = test system: anterior horn motor neurons
[3] = lateral corticospinal tracts, Cervical Segment
[4] = lateral corticospinal tracts, Lumbar Segment
[5] = anterior horn, 210 mg/kg/day, 140 days, median ± SEM
[6] = vervet spinal cord, 210 mg/kg/day oral, 140 days, median ± SEM
[7] = lateral corticospinal tract, stimulated by BMAA dosing

## CNC[C@H](N)C(=O)O [BMAA, β-N-methylamino-L-alanine]
GFAP+ astroglia; anterior horn of the lumbar spinal cord, p=0.008, n=8
  increase of median numbers of GFAP+ astroglia: 44%
GFAP+ astroglia; anterior horns of the lumbar spinal cord, p=0.008
  increase of density of GFAP+ activated astroglia: 1.4 fold
Myelinated axon fibers
  vervets with loss of myelinated axon fiber staining in the lateral corticospinal tracts: 44%
IbA1+ microglia; BMAA-dosed primates, p=0.0039
  density and total area covered by IbA1+ microglia, cervical compared to lumbar segments: 1.5 fold
IbA1+ microglia; [3]
  IbA1+ Density: 1831.8 ± 206.9 Ct
  IbA1+ microglia Size: 15.4 ± 1.7^NS Px
IbA1+ microglia; [4]
  IbA1+ Density: 1213.7 ± 151.5^NS Ct
  IbA1+ microglia Size: 13.9 ± 1.9^NS Px
IbA1+ microglia; lateral corticospinal tracts, cervical spinal cord, p=0.011, n=8
  increase of total area covered by IbA1+ microglia vs rice flour controls: 1.6 fold
IbA1+ microglia; lateral corticospinal tracts, cervical spinal cord, p=0.048, n=8
  increase of median density of IbA1+ microglia vs rice flour controls: 1.7 fold
IbA1+ microglia; lateral corticospinal tracts, NS, p=0.260, n=8
  effect on the size of Iba1+ microglia: did not have a significant effect
Tau AT8+ NFT; p<0.0001, n=8
  increase of median cortical tau AT8+ NFT density: 3.1 fold
[1]; 2 of the 16 BMAA-dosed vervets
  vervets with cytoplasmic mislocalization of FUS protein: 12.5%
[1]; 12 of 16 vervets fed BMAA
  vervets with neurons positive for TDP-43 cytoplasmic inclusion bodies: 75%
[1]; [5]
  number of TDP-43+ motor neurons per region of interest, All Spinal Cord Segments: 4.5 ± 1.7
  number of TDP-43+ motor neurons per region of interest, Cervical Segment: 3.0 ± 1.9
  number of TDP-43+ motor neurons per region of interest, Lumbar Segment: 3.0 ± 3.1
[1]; toxin-dosed vervets, p=0.024
  mean density and distribution of TDP-43+ inclusions vs controls: 5 fold
[2]; BMAA 210 mg/kg/day, 140 days, p=0.0016
  decrease of anterior horn neuronal numbers: 23%
[2]; cervical spinal cord anterior horns, BMAA 210 mg/kg/day, 140 days, p=0.024
  greater frequency of eosinophilic neurons vs rice flour controls: 4.3 fold
[2]; cervical spinal cord anterior horns, p<0.0001
  reduction in size of eosinophilic lower motor neurons: 40%
BMAA and BMAA L-serine dosing cohorts pooled, ±13.7 SE
  median total BMAA concentration in spinal cord tissues: 61.4 µg/g
[6]
  Free BMAA per gram of spinal cord tissues: 8.9 ± 3.9 ^NS μg/g
  Hydrolyzed Protein Pellet BMAA per gram of spinal cord tissues: 0.5 ± 0.3 ^NS μg/g
  Hydrolyzed Supernatant BMAA per gram of spinal cord tissues: 34.0 ± 20.5 ^NS μg/g

## N[C@@H](CO)C(=O)O [L-serine]
CD68+ microglia; [7]
  attenuation of CD68+ microglial expression by coadministration of L-serine: 24%
CD68+ microglia; p=0.01, n=8
  effect of L-serine coadministration on CD68+ microglial nodule numbers, size and expression intensity: reduced
GFAP+ astroglia; anterior horn of the lumbar spinal cord, BMAA + L-serine both 210 mg/kg/day, p=0.008
  reduction of total number of GFAP+ astroglia by coadministration of L-serine: 21%
GFAP+ astroglia; anterior horn of the lumbar spinal cord, automated image analysis, p=0.007
  reduction of total area of GFAP+ astroglia by coadministration of L-serine: 20%
IbA1+ microglia; [7]
  attenuation of mean Iba1+ microglia distribution by coadministration of L-serine: 32%
Tau AT8+ NFT
  attenuation of BMAA-induced tau NFT density by coadministration of L-serine: 40%
Any fraction of the vervet spinal cord
  effect of L-serine coadministration on median concentrations of BMAA in spinal cord: did not significantly reduce
